# Laboratory results: a melting point compilation (Tetko et al.; mined from patent text by program, amines drawn as free bases though some values may be those of a salt)
row,Structure (SMILES),melting point [°C]
1,COc1cc2ncnc(N3CCc4ccc(Cl)cc43)c2cc1SC,210
2,Cc1cc(CC(C)NCCC(c2ccccc2)c2ccccc2)ccc1O (stereo unspecified),115 to 118
3,CCCCc1ccc(OC)c(-c2csc(NC(=O)c3ccc(C(=O)N4CCC(N5CCC[C@H]5CO)CC4)cc3)n2)c1,199
4,COCCNc1c(S(=O)(=O)C(F)(F)F)c(C#N)nn1-c1c(Cl)cc(C(F)(F)F)cc1Cl,164
5,CC(C)(C)OC(=O)N1CCc2onc(O)c2C1,151 to 152
6,Cc1ccc(C(C#N)=NOS(C)(=O)=O)cc1C,91 to 95
7,CS(=O)(=O)c1cc(N)ccc1OC(F)(F)F,106 to 109
8,Cc1nc(C)c(-c2cncc(OC3SCC(O)C(O)C3O)c2)s1 (stereo unspecified),150
9,CCCCN(CCCC)c1ccc(C=Cc2ccc(C(C#N)=c3ccc(=C(C#N)C#N)cc3)s2)c(OC)c1,211 to 214
10,CC(C(O)CCC1CC1)C1CCC2C3CC=C4CC(O)CCC4(C)C3CCC12C (stereo unspecified),174 to 175
11,Cn1ncnc1COc1nn2c(-c3ccccc3F)nnc2cc1C1(F)CCC1,154 to 162
12,CCc1c(Cc2[nH]c(C=O)c(C)c2CCCOC(C)=O)[nH]c(Cc2[nH]c(C=O)c(C)c2CCCOC(C)=O)c1CC,179 to 181
13,CN(C)CC1CCC2(CC1)Nc1cc(Cl)c(S(N)(=O)=O)cc1S(=O)(=O)N2 (stereo unspecified),273
14,CCCCn1c2ccc(C#N)cc2c2cc(C#N)ccc21,215 to 217
15,O=C(O)c1ccc2c(c1)C=CC(=CCl)CO2,> 260
16,COc1cc(CO)cc2c1OCO2,66 to 67
17,COC(=O)c1cc(C(C)OC(C)C)c(C(F)(F)F)cc1N (stereo unspecified),87 to 90
18,COC1(c2cc(F)cc(Sc3ccc4c(c3)O[C@H](C)C(=O)N4C)c2)CCOCC1,107 to 109
19,CC(=O)N1CCc2ccc(C(=O)CCCC3CCN(Cc4ccccc4Cl)CC3)cc2CC1,99 to 100
20,C[C@H]1CCCC(C)(C)[C@@H]1[C@H](O)c1ccc(F)cc1,55 to 57

row,Structure (SMILES),melting point [°C]
1,COc1ccc(C(CO)CNC(=O)C(N)=O)cc1OC1CCCC1 (stereo unspecified),176
2,CCSC1Oc2ccccc2C(=S)C1(C#N)C(N)=O (stereo unspecified),165 to 168
3,C=CCN(CC=C)C(=O)C1=C(C(=O)Nc2cc(OC3CCCC3)c(Cl)cc2F)CCCC1,74 to 76
4,CCN1C(=O)Cc2cc3c(cc21)CCO3,106 to 107
5,COc1c2c(c(C3CCCCC3)c3c4c(ccc13)OCO4)CNC2=O,244 to 246
6,CCOC(=O)C(C#N)(Cc1cc(OC)c(OC)c(OC)c1)C(OCC)OCC (stereo unspecified),95 to 97
7,COc1cc(C(C)=O)ccc1OCCCCN1C2CCC1CC(c1n[nH]c3cc(F)ccc13)C2 (stereo unspecified),148 to 149
8,O=C1CCC(c2ccc(CCCCN3CCN(c4ccc(F)cc4)CC3)cc2)N1 (stereo unspecified),136 to 137
9,Cc1cccc(NC(=O)CC23CC4CC(CC(C4)C2)C3)c1C,170
10,O=C(O)CCCC1CCCNC1 (stereo unspecified),208 to 210
11,CCCc1c(OCCCOc2ccc3c(c2CCC)OC(C(C)=O)(C(=O)OC)CC3)ccc(C(C)=O)c1O (stereo unspecified),58 to 59
12,COc1ccc2c(c1)C(Cl)(C(F)(F)F)OC(=O)N2 (stereo unspecified),112 to 114
13,Cc1cccc(NC(=O)NC2N=C(c3ccccc3F)c3ccccc3N(CC(=O)O)C2=O)c1 (racemic),167 to 169
14,CCOC(=O)COC(=O)CN1CCCCCC1=O,33.5 to 35
15,Cc1oc2cc(N)ccc2c(=O)c1C,224 to 226
16,Cn1nc(-c2ncc(Cl)cc2F)c(Cl)c1C(F)(F)F,76 to 78
17,Nc1ccc(-c2noc(-c3cnn4c(C(F)(F)F)cc(-c5ccc(C(F)(F)F)c(OCC(F)(F)F)c5)nc34)n2)cn1,284
18,Cn1cncc1C(O)(c1ccc(F)cc1)c1ccc2c(c1)c(-c1cccc(Cl)c1)nc1nnnn12 (stereo unspecified),200
19,CS(=O)c1ccc(C(=O)CCCCCC#N)cc1 (stereo unspecified),58.5 to 60.5

# Results, then the molecule that gave them:
row,melting point [°C],Structure (SMILES)
1,218 to 220,Cc1cccc(C(=O)NCc2cccc3c2C(=O)N(C2CCC(=O)NC2=O)C3=O)c1 (stereo unspecified)
2,140,Fc1cc(C(c2cccc(Cl)c2)n2cncn2)c2ccccc2n1 (stereo unspecified)
3,225 to 227,O=C(O)CC(=O)Nc1cc2ccccc2cc1C(=O)O
4,305 to 307,CC1(C)C(c2ccncc2)=Nc2ccc(-c3ccc(=O)[nH]n3)cc21
5,160 to 162,CC(C)(C)OC(=O)NCc1cccc(-c2nc(=O)c3ccccc3s2)n1
6,158 to 160,Cc1nc(-c2ccc(C(F)(F)F)cc2)oc1CSc1ccc(CC(=O)O)cc1Cl
7,103 to 106,CCCc1c(OCCCOc2cc(OCC(=O)OC)ccc2C(C)=O)ccc(C(C)=O)c1O
8,126,CCCNC(=S)c1ccc2c(c1)N([C@H](C)CN1CCC[C@@H](C)C1)c1ccccc1S2 (racemic)
9,203 to 205,CSc1ccc(-c2nc(SC)c(C#N)c(=O)n2-c2ccc(Cl)cc2)cc1
10,122 to 123,O=C(NCCCCOc1ccc(-n2ccnc2)cc1)c1ccc(F)cc1
11,100 to 102,COc1cccc(-c2n[nH]c(-c3ccccc3C)n2)c1
12,69 to 71,O=C(NCc1ccc(Oc2ccccc2)cc1)C1CCC1
13,90 to 91,C=CC(=O)OCCOc1ccc(Cl)c2c1Sc1ccccc1C2
14,189 to 190,Cc1ccc(-c2ccc(OC3SCC(O)C(O)C3O)c(F)n2)cn1 (stereo unspecified)
15,110 to 112,Cc1cc(F)ccc1Nc1nc(N(C)c2ccccc2)c2cccc(OCCCN(C)C)c2n1
16,100 to 101,COCc1cccc(C(=O)c2nc(OC)cc(OC)n2)c1N

row,melting point [°C],Structure (SMILES)
1,164 to 167,COc1c(Cl)ccc(-c2cc(N)c(Cl)c(C(=O)NOCc3cnc(Cl)s3)n2)c1F
2,121 to 123,COC1=CC(Cl)(OC)NC(C(O)CC(=O)Nc2ccccc2)=N1 (stereo unspecified)
3,283 to 285,CC(C)c1ccc(-n2ccn(-c3cccc(C(=O)O)c3)c2=O)cc1
4,95 to 97,COc1cc(CC(=O)NCCOc2ccc(C)c(C)c2)ccc1OCCN
5,80,COC(=O)C1Cc2c(OC)cccc2N1S(=O)(=O)c1ccc(-c2ccc(F)cc2Cl)cc1 (stereo unspecified)
6,213 to 214,CC(C)S(=O)(=O)Nc1ccc(C(=O)Nc2ccc(Br)cc2)cc1
7,237 to 239,CCC(=O)Nc1cccc(-c2c(C)c(NC(=O)CC(C)(C)C)c(C)c3c2OCC3c2ccc(C(C)C)cc2)c1 (stereo unspecified)
8,94.8 to 99.1,CCOc1cccc(-c2cc(F)c(NC(=O)c3ccccc3CO)c(F)c2)c1
9,277 to 280,COc1ccc2c(c1)c1c3c(c(-c4ccccc4Cl)cc1n2C(C)=O)C(=O)NC3=O
10,125 to 126,Cc1ccccc1Nc1nc(Cl)nc2c(C)cccc12
11,76 to 79,Cc1ccc(S(=O)(=O)C(C)(C)C(=O)C(C)C)cc1
12,176 to 177,CC(COc1ccc(CC2SC(=O)NC2=O)cc1)NCC(O)CSc1ccccc1 (stereo unspecified)
13,69,O=C1CCCCCN1C(=O)c1ccccc1
14,213 to 214,Cc1c(-c2ccc(C(C)(C)C)cc2)[nH]c2nccnc12
15,177 to 178,C1=c2ccn3c2=C(CC1)c1nncn1-c1ccccc1-3
16,274 to 275,O=c1[nH]c2ccccc2c(=O)n1Cc1ccc(Cl)c(Cl)c1
